Experiments:
[1] = molecular target: recombinant human FGFR3 (amino acids R397-T806) (Homo sapiens (Human), UniProt P22607); experiment: FGFR3 enzyme activity assay (LanthaScreen TR-FRET); assay type: biochemical; settings: 25 μM ATP, 10 min incubation at 22° C., average of multiple determinations if made, read-out: FGFR3 Enz FRET IC50
Summary of the method: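 GST-HIS6-tagged human FGFR3 (R397-T806) was reacted with 100 nM Alexa Fluor 647-Poly-GT substrate and 25 μM ATP plus compound in HEPES/MgCl2/Triton buffer, pH 7.5, 2% DMSO, for 10 min at 22 °C.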

[2] = molecular target: FGFR1 (SEQ ID NO: 1, amino acids 458-765) (Homo sapiens (Human), UniProt P11362); experiment: LC/MS FGFR1 kobs assay (covalent protein modification); assay type: binding; settings: 500 nM FGFR1, 3 μM compound
Summary of the method: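 Covalent labeling of FGFR1 kinase domain (aa 458-765) tracked over time by intact-protein LC/MS after formic acid quench. kobs derived by fitting DMSO-normalized percent unmodified FGFR1 to an exponential decay model.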

[3] = molecular target: phosphorylated FGFR3 (SEQ ID NO: 5, amino acids 449 to 759) (Homo sapiens (Human), UniProt P22607); experiment: FGFR enzyme binding assay (HTRF tracer displacement), FGFR3; settings: 5 nM phosphorylated FGFR3, average of multiple determinations if made
Summary of the method: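 Compounds were tested for displacement of a tracer from human FGFR kinase in a time-resolved FRET binding format. After 60 minutes at 22° C, signal was read at two wavelengths and converted to percent of control, normalised between untreated wells and 1 μM reference inhibitor.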

recombinant human FGFR3 (amino acids R397-T806), sequence (P22607 397-806): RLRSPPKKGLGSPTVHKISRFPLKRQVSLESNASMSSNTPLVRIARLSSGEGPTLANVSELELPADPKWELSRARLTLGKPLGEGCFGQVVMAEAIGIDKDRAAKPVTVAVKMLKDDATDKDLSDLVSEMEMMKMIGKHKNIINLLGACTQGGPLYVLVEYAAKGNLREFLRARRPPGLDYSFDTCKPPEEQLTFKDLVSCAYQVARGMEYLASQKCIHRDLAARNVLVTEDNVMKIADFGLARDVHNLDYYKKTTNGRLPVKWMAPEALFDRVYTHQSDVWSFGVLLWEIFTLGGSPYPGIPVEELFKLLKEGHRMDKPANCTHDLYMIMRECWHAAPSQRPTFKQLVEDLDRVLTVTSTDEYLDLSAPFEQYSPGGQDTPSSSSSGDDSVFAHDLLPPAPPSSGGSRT
FGFR1 (SEQ ID NO: 1, amino acids 458-765), sequence (P11362 458-765): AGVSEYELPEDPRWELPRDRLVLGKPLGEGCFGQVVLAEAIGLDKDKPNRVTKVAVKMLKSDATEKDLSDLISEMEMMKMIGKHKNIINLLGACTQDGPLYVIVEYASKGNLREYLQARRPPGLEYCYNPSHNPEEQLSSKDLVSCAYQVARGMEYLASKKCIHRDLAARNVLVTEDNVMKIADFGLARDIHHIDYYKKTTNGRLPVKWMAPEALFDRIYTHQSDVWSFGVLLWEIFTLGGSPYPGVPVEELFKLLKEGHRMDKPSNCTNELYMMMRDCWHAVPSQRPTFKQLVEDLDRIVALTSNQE
phosphorylated FGFR3 (SEQ ID NO: 5, amino acids 449 to 759), sequence (P22607 449-759): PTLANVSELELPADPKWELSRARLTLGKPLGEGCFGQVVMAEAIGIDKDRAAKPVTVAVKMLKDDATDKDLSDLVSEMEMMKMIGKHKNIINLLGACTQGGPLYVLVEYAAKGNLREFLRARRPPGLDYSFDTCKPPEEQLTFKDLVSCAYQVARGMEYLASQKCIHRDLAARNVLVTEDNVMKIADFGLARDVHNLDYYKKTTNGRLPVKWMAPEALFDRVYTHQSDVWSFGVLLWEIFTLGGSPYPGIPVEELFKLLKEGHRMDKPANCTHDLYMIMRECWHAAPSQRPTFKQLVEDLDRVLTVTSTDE

IC50 [1] | FGFR1 Enz kobs [2] | IC50 [3] | SMILES
3 nM | 0.00056 min⁻¹ | 39 nM | C=CC(=O)N1CCC(F)(C(=O)N2CCC(n3cc(-c4cc(OC)c5c(C#N)cnn5c4)cn3)CC2)CC1 [Example 13, 6-(1-(1-(1-acryloyl-4-fluoropiperidine-4-carbonyl)piperidin-4-yl)-1H-pyrazol-4-yl)-4-methoxypyrazolo[1,5-a]pyridine-3-carbonitrile]
4 nM | 0.00223 min⁻¹ | 3 nM | C=CC(=O)N1CC(C(=O)N2CCC(c3ccc(-c4cc(OC)c5c(C#N)cnn5c4)cc3)CC2)C1 [Example 101, 6-(4-(1-(1-acryloylazetidine-3-carbonyl)piperidin-4-yl)phenyl)-4-methoxypyrazolo[1,5-a]pyridine-3-carbonitrile]
8 nM | 0.00146 min⁻¹ | 7 nM | C=CC(=O)N1CC(CN2CCC(n3cc(-c4cc(OC)c5c(C#N)cnn5c4)cn3)CC2)C1 [Example 132, 6-(1-(1-((1-acryloylazetidin-3-yl)methyl)piperidin-4-yl)-1H-pyrazol-4-yl)-4-methoxypyrazolo[1,5-a]pyridine-3-carbonitrile]
4 nM | 0.00093 min⁻¹ | 18 nM | C=CC(=O)N1CC2(CCN(C(=O)N3CCC(n4cc(-c5cc(OC)c6c(C#N)cnn6c5)cn4)CC3)CC2)C1 [Example 6, 6-(1-(1-(2-acryloyl-2,7-diazaspiro[3.5]nonane-7-carbonyl)piperidin-4-yl)-1H-pyrazol-4-yl)-4-methoxypyrazolo[1,5-a]pyridine-3-carbonitrile]
8 nM | 0.00126 min⁻¹ | 22 nM | C=CC(=O)N1CC(C)(C(=O)N2CCC(n3cc(-c4cc(OC)c5c(Cl)cnn5c4)cn3)CC2)C1 [Example 123, 1-(3-(4-(4-(3-chloro-4-methoxypyrazolo[1,5-a]pyridin-6-yl)-1H-pyrazol-1-yl)piperidine-1-carbonyl)-3-methylazetidin-1-yl)prop-2-en-1-one]
6 nM | 0.00148 min⁻¹ | 34 nM | C=CC(=O)N1CC(C(=O)N2CCC(n3cc(-c4cc(C(C)C)c5c(C#N)cnn5c4)cn3)CC2)C1 [Example 129, 6-(1-(1-(1-acryloylazetidine-3-carbonyl)piperidin-4-yl)-1H-pyrazol-4-yl)-4-isopropylpyrazolo[1,5-a]pyridine-3-carbonitrile]
5 nM | 0.00204 min⁻¹ | 8 nM | COc1cc(-c2cnn(C3CCN(CC4CN(C(=O)/C=C/CN5CCCCC5)C4)CC3)c2)cn2ncc(C#N)c12 [Example 175, (E)-4-methoxy-6-(1-(1-((1-(4-(piperidin-1-yl)but-2-enoyl)azetidin-3-yl)methyl)piperidin-4-yl)-1H-pyrazol-4-yl)pyrazolo[1,5-a]pyridine-3-carbonitrile]
5 nM | 0.0028 min⁻¹ | 11 nM | C=CC(=O)N1CC(C(=O)N2CCC(n3cc(-c4cc(OCC)c5c(C#N)cnn5c4)cn3)CC2)C1 [Example 126, 6-(1-(1-(1-acryloylazetidine-3-carbonyl)piperidin-4-yl)-1H-pyrazol-4-yl)-4-ethoxypyrazolo[1,5-a]pyridine-3-carbonitrile]
4 nM | 0.00146 min⁻¹ | 1 nM | C=CC(=O)N1CC(C(=O)N2CCC(n3cc(-c4cc(-c5ccccc5F)c5c(C#N)cnn5c4)cn3)CC2)C1 [Example 131, 6-(1-(1-(1-acryloylazetidine-3-carbonyl)piperidin-4-yl)-1H-pyrazol-4-yl)-4-(2-fluorophenyl)pyrazolo[1,5-a]pyridine-3-carbonitrile]
3 nM | 0.00133 min⁻¹ | 10 nM | C=CC(=O)N1CC(C(=O)N2CCC(n3cc(-c4cc(OC(C)C)c5c(C#N)cnn5c4)cn3)CC2)C1 [Example 127, 6-(1-(1-(1-acryloylazetidine-3-carbonyl)piperidin-4-yl)-1H-pyrazol-4-yl)-4-isopropoxypyrazolo[1,5-a]pyridine-3-carbonitrile]
8 nM | 0.00241 min⁻¹ | 9 nM | C=CC(=O)N1CC(OC)(C(=O)N2CCC(n3cc(-c4cc(OC)c5c(Cl)cnn5c4)cn3)CC2)C1 [Example 124, 1-(3-(4-(4-(3-chloro-4-methoxypyrazolo[1,5-a]pyridin-6-yl)-1H-pyrazol-1-yl)piperidine-1-carbonyl)-3-methoxyazetidin-1-yl)prop-2-en-1-one]
9 nM | 0.00167 min⁻¹ | 19 nM | C=CC(=O)N1CC(C(=O)N2CCC(n3cnc(-c4cc(OC)c5c(C#N)cnn5c4)c3)CC2)C1 [Example 98, 6-(1-(1-(1-acryloylazetidine-3-carbonyl)piperidin-4-yl)-1H-imidazol-4-yl)-4-methoxypyrazolo[1,5-a]pyridine-3-carbonitrile]
2 nM | 0.00042 min⁻¹ | 9 nM | C=CC(=O)N1C[C@H]2CN(C(=O)N3CCC(n4cc(-c5cc(OC)c6c(C#N)cnn6c5)cn4)CC3)C[C@H]21 [Example 7, 6-(1-(1-((1S,5S)-6-acryloyl-3,6-diazabicyclo[3.2.0]heptane-3-carbonyl)piperidin-4-yl)-1H-pyrazol-4-yl)-4-methoxypyrazolo[1,5-a]pyridine-3-carbonitrile]
2 nM | 0.00278 min⁻¹ | 2 nM | COc1cc(-c2cnn(C3CCN(C(=O)C4CN(C(=O)/C=C/CN(C)C)C4)CC3)c2)cn2ncc(C#N)c12 [Example 143, (E)-6-(1-(1-(1-(4-(dimethylamino)but-2-enoyl)azetidine-3-carbonyl)piperidin-4-yl)-1H-pyrazol-4-yl)-4-methoxypyrazolo [1,5-a]pyridine-3-carbonitrile]
3 nM | 0.00179 min⁻¹ | 4 nM | COc1cc(-c2cnn(C3CCN(C(=O)C4CN(C(=O)/C=C/CN5CCCCC5)C4)CC3)c2)cn2ncc(C#N)c12 [Example 145, (E)-4-methoxy-6-(1-(1-(1-(4-(piperidin-1-yl)but-2-enoyl)azetidine-3-carbonyl)piperidin-4-yl)-1H-pyrazol-4-yl)pyrazolo[1,5-a]pyridine-3-carbonitrile]
4 nM | 0.00242 min⁻¹ | 12 nM | COc1cc(-c2cnn(C3CCN(C(=O)C4CN(C(=O)/C=C/CN(C)C)C4)CC3)c2)cn2ncc(Cl)c12 [Example 174]

SMILES | IC50 [1] | FGFR1 Enz kobs [2] | IC50 [3]
C=CC(=O)N1CC(C(=O)N2CCC(n3cc(-c4cc(OCC(C)C)c5c(C#N)cnn5c4)cn3)CC2)C1 [Example 128, 6-(1-(1-(1-acryloylazetidine-3-carbonyl)piperidin-4-yl)-1H-pyrazol-4-yl)-4-isobutoxypyrazolo[1,5-a]pyridine-3-carbonitrile] | 3 nM | 0.00134 min⁻¹ | 6 nM
C=CC(=O)N1CC(C(=O)N2CCC(n3cc(-c4cc(OC5CCC5)c5c(C#N)cnn5c4)cn3)CC2)C1 [Example 125, 6-(1-(1-(1-acryloylazetidine-3-carbonyl)piperidin-4-yl)-1H-pyrazol-4-yl)-4-cyclobutoxypyrazolo[1,5-a]pyridine-3-carbonitrile] | 3 nM | 0.00246 min⁻¹ | 2 nM

From patent publication US12180207B2 (ARRAY BIOPHARMA INC., priority 2018, dated 2024)
